Laboratory results: ChEMBL document CHEMBL1777674, “2,6-Disubstituted pyrazines and related analogs as NR2B site antagonists of the NMDA receptor with anti-depressant activity” (Bioorg Med Chem Lett, 2011)
Converted amounts (≈) assume the structure as drawn.

Assays:
[1] = Plasma concentration in mouse at 10 mg/kg, ip after 30 mins; assay type: ADME, organism-based; set-up: dose 10 mg/kg, route intraperitoneal
[2] = Ratio of drug level in brain to plasma in mouse at 30 mg/kg, ip after 30 mins; assay type: ADME, organism-based; set-up: dose 30 mg/kg, route intraperitoneal; settings: read-out: BPR
[3] = Plasma concentration in mouse at 30 mg/kg, ip after 30 mins; assay type: ADME, organism-based; set-up: dose 30 mg/kg, route intraperitoneal
[4] = Ratio of drug level in brain to plasma in mouse at 60 mg/kg, ip after 30 mins; assay type: ADME, organism-based; set-up: dose 60 mg/kg, route intraperitoneal; settings: read-out: BPR
[5] = Ratio of drug level in brain to plasma in mouse at 10 mg/kg, ip after 30 mins; assay type: ADME, organism-based; set-up: dose 10 mg/kg, route intraperitoneal; settings: read-out: BPR
[6] = Plasma concentration in mouse at 60 mg/kg, ip after 30 mins; assay type: ADME, organism-based; set-up: dose 60 mg/kg, route intraperitoneal
[7] = Intrinsic clearance in human liver microsomes; assay type: ADME, Microsome
[8] = Equilibrium solubility of the compound at pH 7.4; assay type: physicochemical; settings: buffer

SMILES | concentration at 0.5 h [1] [nM] | Kp at 0.5 h [2] | concentration at 0.5 h [3] [nM] | Kp at 0.5 h [4] | Kp at 0.5 h [5] | concentration at 0.5 h [6] [nM] | microsomal CLint [7] [µL/min/mg] | solubility thermodynamic [8] [µM]
COc1cc(F)ccc1-c1cncc(CNC2CCCC2)c1 | 867 | 13.6 | 2320 | 12.6 | 10.9 | 3370 | 74 | > 450
COc1cc(F)ccc1-c1cncc(CNC(=O)c2ccccn2)c1 | – | – | – | – | – | – | 45 | –
COc1cc(F)ccc1-c1cncc(CNC(=O)c2cnccn2)c1 | – | – | – | – | – | – | 64 | 63 (≈ 21.3 µg/mL)
C[C@@H]([C@@H](O)c1ccc(O)cc1)N1CCC(O)(c2ccccc2)CC1 [TRAXOPRODIL] | – | – | – | – | – | – | 37 | > 470
COc1cc(F)ccc1-c1cncc(CNCC2CC2)n1 | – | – | – | – | – | – | 108 | 340 (≈ 97.7 µg/mL)
